From patent US12428415B2, “Matriptase 2 inhibitors and uses thereof” (Disc Medicine, Inc., priority 2018, dated 2025)

target: T1, Human Recombinant Matriptase 2 (Homo sapiens, UniProt Q8IU80); assay: Matriptase 2 fluorescence based inhibition assay, Method A (100 mM TRIS pH 9, 1 mg/mL BSA); type: biochemical; details: 1 uM compound; Assay Used = A; read-out: Mar-2 % inhibition at 1 uM
T1 construct: purchased Enzo Life Sciences (an in-house preparation was also used) ALX-201-752-1
T1 sequence (Q8IU80 1-811): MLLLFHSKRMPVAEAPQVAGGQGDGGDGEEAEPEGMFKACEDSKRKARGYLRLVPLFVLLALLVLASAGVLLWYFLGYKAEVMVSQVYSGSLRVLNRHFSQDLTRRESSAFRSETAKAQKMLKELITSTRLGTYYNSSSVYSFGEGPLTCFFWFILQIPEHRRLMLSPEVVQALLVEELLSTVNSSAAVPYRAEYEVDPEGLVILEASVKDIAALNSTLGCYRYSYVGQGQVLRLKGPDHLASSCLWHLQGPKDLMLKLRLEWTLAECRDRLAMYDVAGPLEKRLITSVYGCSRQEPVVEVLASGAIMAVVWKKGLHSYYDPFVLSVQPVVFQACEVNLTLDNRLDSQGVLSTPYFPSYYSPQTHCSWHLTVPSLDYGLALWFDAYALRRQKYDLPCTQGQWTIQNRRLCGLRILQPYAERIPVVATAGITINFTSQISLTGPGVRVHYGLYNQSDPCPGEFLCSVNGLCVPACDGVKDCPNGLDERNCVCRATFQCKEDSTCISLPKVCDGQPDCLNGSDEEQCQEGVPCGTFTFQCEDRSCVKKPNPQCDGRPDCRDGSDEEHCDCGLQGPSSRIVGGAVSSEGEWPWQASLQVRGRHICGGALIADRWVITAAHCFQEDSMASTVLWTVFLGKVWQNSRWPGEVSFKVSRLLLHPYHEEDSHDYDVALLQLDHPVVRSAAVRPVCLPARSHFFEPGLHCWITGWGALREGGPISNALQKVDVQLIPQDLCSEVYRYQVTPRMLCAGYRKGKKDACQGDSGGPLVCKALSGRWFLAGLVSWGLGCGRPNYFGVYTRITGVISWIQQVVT
Experimental: Test compounds were evaluated for their potential to inhibit Human Recombinant Matriptase 2 (in-house and commercial protein from Enzo Life Sciences—cat log -ALX-201-752-1) using fluorescence based assay. The concentration of Recombinant Matriptase 2 and the substrate used in the assay was: 7 nM (commercial) and 15 nM (Inhouse Matriptase 2) and 100 μM (Boc-Gln-Ala-Arg-7-amido-4-methyl coumarin hydrobromide—Cat log: B4153-Sigma) respectively. The assay buffer used was 100 mM TRIS pH 9, 1 mg/mL BSA. The assay was performed using 384 well black flat bottom plate from grenier (Cat log: 781076) at 25° C. The enzyme and compound was preincubated for 30 mins, plate was read 60 mins after substrate addition at wavelength Ex: 360/Em: 480 nm. The final assay volume was 20 μl. Stock solution of compounds were initially prepared in DMSO and appropriate dilutions were made for screening and IC50 determination (final DMSO conc in the assay was 1%). All the measurements were carried out using the Spectramax M5, Molecular devices. The compounds were screened at 1 and 10 μM concentration and IC50 was determined for the interested compounds.
To determine IC50 values, dose response curves were generated by plotting percentage inhibition as a function of inhibitor concentration and the data was fitted to sigmoidal non-linear regression equation (variable slope) using Graph Pad prism software V7.

| SMILES | inhibition at 1 µM [%] |
| --- | --- |
| N=C(N)c1ccc2cc(C(=O)NCC3CCNCC3)n(Cc3ccc4ccccc4c3)c2c1 [Compound I-406, 6-carbamimidoyl-1-(naphthalen-2-ylmethyl)-N-(piperidin-4-ylmethyl)-1H-indole-2-carboxamide] | 25 to 50 |

same assay, conditions: 1 uM; Assay Used A; read-out: Mar-2 % inhibition at 1 uM

| SMILES | inhibition at 1 µM [%] |
| --- | --- |
| N=C(N)c1ccc2cc(C(=O)Nc3cccc(N4CC[C@H](F)C4)c3)n(Cc3ccc(C(N)=O)cc3)c2c1 [Compound I-122] | 0 to 25 |
| N=C(N)c1ccc2cc(C(=O)Nc3cccc(C(F)(F)F)c3)n(CCS(=O)(=O)c3ccccc3)c2c1 [Compound I-40, 6-Carbamimidoyl-1-(2-(phenylsulfonyl)ethyl)-N-(3-(trifluoromethyl)phenyl)-1H-indole-2-carboxamide] | 0 to 25 |
| CC(C)c1ccc(Cn2c(C(=O)N[C@H]3CC=CCC3)cc3ccc(C(=N)N)cc32)cc1 [Compound I-14] | 0 to 25 |

same assay, conditions: at 1 uM; Assay Used = A; read-out: Mar-2 % inhibition at 1 uM

| SMILES | inhibition at 1 µM [%] |
| --- | --- |
| N=C(N)c1ccc2cc(C(=O)N3CCC(CCO)CC3)n(Cc3ccc(C(F)(F)F)cc3)c2c1 [Compound I-280] | 0 to 25 |
| N=C(N)c1ccc2cc(C(=O)N3CCC(C(F)(F)F)CC3)n(Cc3ccc(C(N)=O)cc3)c2c1 [Compound I-329] | 0 to 25 |

target: T1, Human Recombinant Matriptase 2; assay: Matriptase 2 fluorescence based inhibition assay, Method B (50 mM TRIS pH 7.5, 150 mM NaCl, 0.01% gelatin); type: biochemical; details: 1 uM compound; Assay Used = B (Method B); read-out: Mar-2 % inhibition at 1 uM
Outline: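 Fluorogenic substrate Boc-Gln-Ala-Arg-7-amido-4-methylcoumarin (100 μM) cleavage read at Ex 360/Em 480 nm 60 min after addition, following 30 min enzyme–compound preincubation at 25° C. Enzyme was 7 nM commercial or 15 nM in-house; DMSO 1%. IC50s fitted by non-linear sigmoidal regression.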

| SMILES | inhibition at 1 µM [%] |
| --- | --- |
| N=C(N)c1ccc2cc(C(=O)Nc3cccc4c3OCCO4)n(Cc3cccc4ccccc34)c2c1 [Compound I-760] | 0 to 25 |
| NCc1ccc2cc(C(=O)N[C@H]3CC[C@H](N)CC3)n(Cc3cc(Oc4ncccn4)cc4ccccc34)c2c1 [Compound I-605] | 50 to 75 |
| N#Cc1ccc(Cn2c(C(=O)N[C@H]3CC[C@H](N)CC3)cc3ccc(C(=N)N)cc32)c2ccccc12 [Compound I-691] | 75 to 100 |
| COc1ccccc1Oc1cc(Cn2c(C(=O)N[C@H]3CC[C@H](N)CC3)cc3ccc(C(=N)N)cc32)c2ccccc2c1 [Compound I-700] | 50 to 75 |
| Cn1c(C(=O)O)c(Cc2cccc3ccccc23)c2cc(C(=N)N)ccc21 [Compound I-689] | 75 to 100 |
| N=C(N)c1ccc2cc(C(=O)O)n(-c3ccc4ccccc4c3)c2c1 [Compound I-654] | 0 to 25 |
| CCOC(=O)c1cc2ccc(C(=N)N)cc2n1Cc1cc(S(=O)(=O)c2ccccc2)cc2ccccc12 [Compound I-669] | 25 to 50 |
| COC(=O)c1cc2ccc(C(=N)N)cc2n1Cc1csc2ccccc12 [Compound I-708] | 25 to 50 |
| N=C(N)c1ccc2cc(C(=O)N[C@H]3CC[C@H](N)CC3)n(Cc3cc(N4CCOCC4=O)cc4ccccc34)c2c1 [Compound I-702] | 25 to 50 |
| CC(C)COC(=O)NC(=N)c1ccc2cc(C(=O)NC3CCN(C)CC3)n(Cc3cccc4ccccc34)c2c1 [Compound I-783] | 0 to 25 |
| N=C(N)c1ccc2cc(C(=O)O)n(Cc3cc(Oc4ccncn4)cc4ccccc34)c2c1 [Compound I-618] | 50 to 75 |

same assay, conditions: 1 uM compound; Assay Used = B; read-out: Mar-2 % inhibition at 1 uM

| SMILES | inhibition at 1 µM [%] |
| --- | --- |
| CC(C)(C)OC(=O)NC(=N)c1ccc2cc(C(=O)NC3CCCN(C(=O)OC(C)(C)C)C3)n(Cc3cccc4ccccc34)c2c1 (stereo not drawn) [Compound I-427] | 0 to 25 |
| N=C(N)c1ccc2cc(C(=O)Nc3ccc(N4CCC(F)C4)cc3)n(Cc3cccc4ccccc34)c2c1 (stereo not drawn) [Compound I-447] | 25 to 50 |
| NC(=O)c1ccc2cc(C(=O)N[C@H]3CC[C@H](N)CC3)n(-c3cccc4ccccc34)c2c1 [Compound I-417, N2-((1r,4r)-4-aminocyclohexyl)-1-(naphthalen-1-yl)-1H-indole-2,6-dicarboxamide] | 0 to 25 |
| N=C(N)c1ccc2cc(-c3nnc([C@H]4CC[C@H](N)CC4)s3)n(Cc3cccc4ccccc34)c2c1 [Compound I-526, 2-(5-((1r,4r)-4-aminocyclohexyl)-1,3,4-thiadiazol-2-yl)-1-(naphthalen-1-ylmethyl)-1H-indole-6-carboximidamide] | 75 to 100 |
| COc1ccnc(Oc2cc(Cn3c(C(=O)O)cc4ccc(C(=N)N)cc43)c3ccccc3c2)n1 [Compound I-574] | 25 to 50 |
| N=C(N)c1ccc2cc(S(=O)(=O)N[C@H]3CC[C@H](N)CC3)n(Cc3cccc4ccccc34)c2c1 [Compound I-522, 2-(N-((1r,4r)-4-aminocyclohexyl)sulfamoyl)-1-(naphthalen-1-ylmethyl)-1H-indole-6-carboximidamide] | 50 to 75 |
| CN1CCC(CNC(=O)c2cc3ccc(C(=N)N)cc3n2Cc2cccc3ccccc23)CC1 [Compound I-460, 6-carbamimidoyl-N-((1-methylpiperidin-4-yl)methyl)-1-(naphthalen-1-ylmethyl)-1H-indole-2-carboxamide] | 75 to 100 |
| CN1CCC(COC(=O)c2cc3ccc(C(=N)N)cc3n2Cc2cc(Oc3ncccn3)cc3ccccc23)CC1 [Compound I-562] | 50 to 75 |
| N=C(N)c1ccc2cc(C(=O)NCCCN3CCCCC3)n(Cc3cccc4ccccc34)c2c1 [Compound I-478] | 75 to 100 |
| N=C(N)c1ccc2cc(-c3nnc([C@H]4CC[C@H](N)CC4)o3)n(Cc3cccc4ccccc34)c2c1 [Compound I-525, 2-(5-((1r,4r)-4-aminocyclohexyl)-1,3,4-oxadiazol-2-yl)-1-(naphthalen-1-ylmethyl)-1H-indole-6-carboximidamide] | 75 to 100 |
| N=C(N)c1ccc2cc(C(=O)OCCNC(N)=O)n(Cc3cc(Oc4ncccn4)cc4ccccc34)c2c1 [Compound I-568] | 75 to 100 |
| N=C(N)c1ccc2cc(C(=O)NC3CCNCC3)n(Cc3cccc4ccccc34)c2c1 [Compound I-418, 6-carbamimidoyl-1-(naphthalen-1-ylmethyl)-N-(piperidin-4-yl)-1H-indole-2-carboxamide] | 75 to 100 |
| CCOC(=O)c1cc2ccc(C(=N)N)cc2n1Cc1cc(Oc2ccsc2)cc2ccccc12 [Compound I-592] | 0 to 25 |
| CN1CCC(NC(=O)c2cc3ccc(C(=N)N)cc3n2Cc2cccc3ccccc23)CC1 [Compound I-432] | 75 to 100 |
| CN1CCN(C(=O)c2cc3ccc(C(=N)NC(=O)OC(C)(C)C)cc3n2Cc2cccc3ccccc23)CC1 [Compound I-425] | 0 to 25 |
| N=C(N)c1ccc2cc(C(=O)N(CCO)C3CCC(N)CC3)n(Cc3cccc4ccccc34)c2c1 (stereo not drawn) [Compound I-453] | 50 to 75 |

same assay, conditions: compound at 1 uM; Assay Used: B; read-out: Mar-2 % inhibition at 1 uM

| SMILES | inhibition at 1 µM [%] |
| --- | --- |
| CCOC(=O)c1cc(Cn2c(C(=O)N[C@H]3CC[C@H](N)CC3)cc3ccc(C(=N)N)cc32)c2ccccc2c1 [Compound I-812] | 75 to 100 |
| N=C(N)c1ccc2cc(C(=O)N[C@H]3CC[C@H](N)CC3)n(Cc3cccc4c3CCCC4)c2c1 [Compound I-814] | 25 to 50 |
| N=C(NN)c1ccc2cc(C(=O)N[C@H]3CC[C@H](N)CC3)n(Cc3cccc4ccccc34)c2c1 [Compound I-827, N-((1r,4r)-4-aminocyclohexyl)-6-(hydrazineyl(imino)methyl)-1-(naphthalen-1-ylmethyl)-1H-indole-2-carboxamide] | 25 to 50 |
| Cc1cccc2sc(Cn3c(C(=O)N[C@H]4CC[C@H](N)CC4)cc4ccc(C(=N)N)cc43)cc12 [Compound I-820] | 25 to 50 |
| N/C(=N\O)c1ccc2cc(C(=O)O[C@H]3CC[C@H](N)CC3)n(Cc3cccc4ccccc34)c2c1 [Compound I-810, (1r,4r)-4-aminocyclohexyl 6-((Z)—N′-hydroxycarbamimidoyl)-1-(naphthalen-1-ylmethyl)-1H-indole-2-carboxylate] | 25 to 50 |
| C[C@@H](c1cccc2ccccc12)n1c(C(=O)N[C@H]2CC[C@H](N)CC2)cc2ccc(/C(N)=N/O)cc21 [Compound I-802] | 0 to 25 |
